PubChem BioAssay (NCI)
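Cells were grown in 96-well plates and exposed to each compound for 48 hours at five concentrations; endpoints were interpolated linearly between bracketing concentrations, or set to the highest concentration if not reached. Definition used: TGI = concentration required for complete inhibition of growth.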

Assays:
Experiment in all cases: inhibition of tumour cell growth, NCI panel, 48 h
OVCAR-8 ovarian = system: OVCAR-8 ovarian
CCRF-CEM leukemia = system: CCRF-CEM leukemia
HCT-116 colon = system: HCT-116 colon
BT-549 breast = system: BT-549 breast
OVCAR-4 ovarian = system: OVCAR-4 ovarian
UACC-62 melanoma = system: UACC-62 melanoma
LOX IMVI melanoma = system: LOX IMVI melanoma
DU-145 prostate = system: DU-145 prostate
SK-MEL-2 melanoma = system: SK-MEL-2 melanoma
IGROV1 ovarian = system: IGROV1 ovarian

| Compound | TGI (OVCAR-8 ovarian) | TGI (CCRF-CEM leukemia) | TGI (HCT-116 colon) | TGI (BT-549 breast) | TGI (OVCAR-4 ovarian) | TGI (UACC-62 melanoma) | TGI (LOX IMVI melanoma) | TGI (DU-145 prostate) | TGI (SK-MEL-2 melanoma) | TGI (IGROV1 ovarian) |
| --- | --- | --- | --- | --- | --- | --- | --- | --- | --- | --- |
| C[C@@H]1CC[C@@]2(C)C(C(=O)O)=CCCC2[C@@]1(C)CC(=O)c1ccoc1 (stereo not given in full) | > 25 µM | > 25 µM | > 25 µM | > 25 µM | > 25 µM | > 25 µM | > 25 µM | > 25 µM | > 25 µM | > 25 µM |
| COc1ccc2nc(NC(=O)/C(C#N)=C/c3ccccc3)sc2c1 | > 100 µM | 59.7 µM | > 100 µM | > 100 µM | > 100 µM | > 100 µM | > 100 µM | > 100 µM | > 100 µM | > 86.3 µM |
| CCCCCCN(CCCCCC)C(=S)N/N=C(\C)c1ccccn1 | 3.38 µM | 4.39 µM | 2.39 µM | 3.8 µM | 3.16 µM | 3.5 µM | 2.59 µM | 2.59 µM | 3.02 µM | 2.62 µM |
| Cn1c2ccccc2c2ccc3c(c21)C(=O)c1ccc2c4ccccc4n(C)c2c1C3=O | > 100 µM | > 100 µM | > 100 µM | > 100 µM | > 100 µM | > 100 µM | > 100 µM | > 100 µM | > 100 µM | > 100 µM |
| O=C(COc1ccc(OCC(=O)N/N=C/c2ccc(-c3ccc(Cl)cc3Cl)o2)c(Cl)c1)N/N=C/c1ccc(-c2ccc(Cl)cc2Cl)o1 | > 100 µM | 34.8 µM | > 100 µM | > 100 µM | > 100 µM | > 100 µM | > 100 µM | > 100 µM | > 100 µM | > 100 µM |
| CN(C)CCN(c1ccccn1)c1ccccn1 | > 100 µM | > 100 µM | > 100 µM | > 100 µM | > 100 µM | > 100 µM | > 100 µM | > 100 µM | > 100 µM | > 100 µM |
| OCc1ccc2c(c1)CC1(C2)Cc2cc3c(cc2C1O)CCC3 (stereo not given) | 30.9 µM | > 44.9 µM | 15.4 µM | 16 µM | 36.3 µM | 16.2 µM | 19.4 µM | 67.1 µM | 12.7 µM | 26.8 µM |
| CC(=O)c1ccc(Oc2c3ccccc3nc3ccccc23)cc1 | 22.2 µM | 8.43 µM | 8.81 µM | 27.1 µM | 18.6 µM | 17 µM | 17.9 µM | 15.2 µM | 21.4 µM | 17.4 µM |
| CN(C)c1ccc(/C=C(\NC(=O)c2ccccc2)C(=O)NC(CC(=O)O)C(=O)O)cc1 (stereo not given) | > 100 µM | > 100 µM | > 100 µM | > 100 µM | > 100 µM | > 100 µM | > 100 µM | > 100 µM | > 100 µM | > 100 µM |
| CCOC(=O)CSc1nc(N)c2c(-c3ccccc3)c3c(nc2n1)CCCC3 | > 100 µM | > 100 µM | > 100 µM | > 100 µM | > 100 µM | > 100 µM | > 100 µM | > 100 µM | > 100 µM | > 100 µM |
| CC1=CC2C3(C)C(C)(C(C)=CP3(=O)c3c(C(C)C)cc(C(C)C)cc3C(C)C)C1P2(=O)c1c(C(C)C)cc(C(C)C)cc1C(C)C (stereo not given) | 16.6 µM | 7.44 µM | 4.02 µM | 4.58 µM | 16.1 µM | 2.92 µM | 3.26 µM | 14.2 µM | 3.37 µM | 6.1 µM |
| O=c1oc2ccc3ccccc3c2cc1-c1cn2ccsc2n1 | 41.2 µM | 51.6 µM | 30.9 µM | 32.6 µM | 40.7 µM | 34.2 µM | 31.7 µM | 47.3 µM | > 100 µM | 23.2 µM |
| CCc1c(O)cc(=O)oc1-c1ccc(OC)c(OC)c1 | > 100 µM | > 100 µM | > 100 µM | > 100 µM | > 100 µM | > 100 µM | > 100 µM | > 100 µM | > 100 µM | > 100 µM |
| Cc1ccccc1-c1nc2c(N)nc(N)nc2nc1N | > 100 µM | > 100 µM | > 100 µM | > 100 µM | > 100 µM | > 100 µM | > 100 µM | > 100 µM | > 100 µM | > 100 µM |
| CC(C)NC(=O)OCc1c(COC(=O)NC(C)C)n(C)c2c1ccc1sccc12 | > 100 µM | > 100 µM | 39 µM | 10.7 µM | 36.5 µM | 32.5 µM | > 53.1 µM | 21.1 µM | 36.2 µM | 26.1 µM |
| Cc1c(C)n(-c2ccccc2)c2nc(S(C)=O)nc(S(C)=O)c12 (stereo not given) | 12.4 µM | 3.88 µM | 4.86 µM | 4.13 µM | 17.4 µM | 20.1 µM | 4.15 µM | 27.5 µM | 10.1 µM | 17.2 µM |
| O=C(NCc1ccccc1)c1cc2ccccc2oc1=Nc1cccc(C(F)(F)F)c1 | > 100 µM | > 100 µM | > 100 µM | > 100 µM | > 100 µM | > 100 µM | > 100 µM | > 100 µM | > 100 µM | > 100 µM |
